Results reported in patent US20060009524A1, “Methods for producing D-beta-hydroxyamino acids” (priority 2004, published 2006).
Read-outs that look alike come from different tables or passages of the source.

What was measured:
[1] = system: L-phenylserine aldolase; assay: Effect of cations on the activity of L-phenylserine aldolase; format: biochemical, Pseudomonas putida biovar A24-1 strain; settings: for activation of the enzyme by cation (in words): monovalent or divalent cations
[2] = system: L-phenylserine aldolase; format: biochemical, Pseudomonas putida biovar A24-1 strain; settings: compound as substrate
Method: E. coli JM109 strain was transformed with the plasmid pKK-PSA1 obtained in Example 4. The resulting transformant was inoculated to liquid LB medium (Bacto-tryptone 10 g/l, Bacto-yeast extract 5 g/l, sodium chloride 10 g/l; pH 7.2) containing ampicillin (50 mg/l), and cultured at 30° C. overnight. Then, an aliquot of the culture was inoculated to 2×YT medium (Bacto-tryptone 20 g/l, Bacto-yeast extract 10 g/l, sodium chloride 10 g/l; pH 7.2) containing ampicillin (50 mg/l). The bacterial cells were cultured at 30° C., and then the induction was achieved by treating the cells with 0.1 mM IPTG for 4 hours. The bacterial cells were harvested by centrifugation. The cells were suspended in 100 mM TES-NaOH buffer (pH 7.2) containing 0.02% 2-mercaptoethanol, 2 mM EDTA, and 20 μM pyridoxal-5′-phosphate. The cell suspension was sonicated in a closed sonicator UCD-200™ (Cosmo Bio) for 3 minutes to lyse the bacterial cells. The bacterial cell lysate was centrifuged and the resulting supernatant was used as cell-free extract. The activity of L-phenylserine aldolase was assayed using the cell-free extract. The specific activity was confirmed to be 20.0 U/mg.
When the activity to DL-threo-phenyl serine was taken as 100%, the relative activity was estimated to be 31.3%.

[3] = system: L-phenylserine aldolase; assay: Substrate specificity of purified L-phenylserine aldolase under the standard assay conditions; settings: compound as substrate; for Relative activity: activity to DL-threo-β-phenyl serine taken as 100, purified enzyme, standard assay conditions
[4] = compound 0.1 mM, preincubated with enzyme at 30° C. for 10 minutes, activity in the absence of cation taken as 100
[5] = compound 0.1 mM, preincubated with enzyme at 30° C. for 10 minutes, […]
[6] = compound 50 mM, preincubated with enzyme at 30° C. for 10 minutes, […]

## [Mn+2] [manganese ion]
[1]
  activation of the enzyme by cation (in words): not activated

## N[C@@H](C(=O)O)[C@H](O)C1CCCCC1 (racemic)
[2]; activity to DL-threo-phenyl serine taken as 100%
  Relative activity: 31.3%
[2]; cell-free extract of Example 5
  enzymatic activity to the substrate: 6.26 U/mg

## [Ba+2].[Cl-].[Cl-] [Barium chloride]
[1]; [4]
  Relative activity: 90%

## N[C@@H](C(=O)O)[C@@H](O)c1ccccc1 [D-threo-phenyl serine]
[3]
  activity to the compound: undetectable

## N[C@@H](CO)C(=O)O [L-serine]
[3]
  enzymatic activity to the compound (in words): almost no activity
  Relative activity: 0

## C[C@H](O)[C@H](N)C(=O)O [L-allo-threonine]
[3]
  enzymatic activity to the compound (in words): low enzymatic activity
  Relative activity: 8

## O=S(=O)([O-])[O-].[Fe+2] [Ferric (II) sulfate]
[1]
  Relative activity: 91%

## [K+] [potassium ion]
[1]
  activation of the enzyme by cation (in words): not activated

## O=S(=O)([O-])[O-].[Cu+2] [Copper sulfate]
[1]
  Relative activity: 89%

## [Cl][Co][Cl] [Cobalt chloride]
[1]; [5]
  Relative activity: 98%

## [Cl-].[Cl-].[Zn+2] [Zinc chloride]
[1]; [5]
  Relative activity: 92%

## Manganese chloride
[1]; [4]
  Relative activity: 92%

## NCC(O)c1ccccc1 (racemic) [DL-β-hydroxyphenylethylamine]
[3]
  Relative activity: 0

## N[C@@H](C(=O)O)[C@H](O)c1ccccc1 [D-erythro-phenyl serine]
[3]
  activity to the compound: undetectable

## C[C@H](O)[C@@H](N)C(=O)O [D-threonine]
[3]
  Relative activity: 0

## DL-β-thienyl serine
[3]
  Relative activity: 170

## N[C@@H](C(=O)O)[C@@H](O)c1ccccc1 (racemic) [DL-threo-β-phenyl serine]
[3]
  Relative activity: 100

## O=C(O)[C@@H](O)Cc1ccccc1 [L-phenyllactic acid]
[3]
  Relative activity: 0

## N [ammonium ion]
[1]
  activation of the enzyme by cation (in words): not activated

## Cl.N [Ammonium chloride]
[1]; [6]
  Relative activity: 92%

## N[C@H](CO)C(=O)O [D-serine]
[3]
  Relative activity: 0

## C[C@@H](O)[C@H](N)C(=O)O [L-threonine]
[3]
  enzymatic activity to the compound (in words): low enzymatic activity
  Relative activity: 2.1

## [Cl-].[Cl-].[Mg+2] [Magnesium chloride]
[1]
  Relative activity: 98%

## C[C@@H](O)[C@@H](N)C(=O)O [D-allo-threonine]
[3]
  Relative activity: 0

## [Cl-].[Na+] [Sodium chloride]
[1]; [6]
  Relative activity: 88%

## N[C@@H](C(=O)O)[C@H](O)c1ccccc1 (racemic) [DL-erythro-β-phenyl serine]
[3]
  Relative activity: 130

## CCC(O)C(N)C(=O)O (racemic) [DL-β-hydroxynorvaline]
[3]
  Relative activity: 0

## [Cl-].[K+] [Potassium chloride]
[1]; [6]
  Relative activity: 94%
